# Experimental data taken from patent US20070197562A1, “Remedies for prostatic hypertrophy” (Yokohama TLO Company, Ltd., priority 2004, published 2007).
# How the values were obtained:
# F-1 cells = assay: IL-6 secretion by primary-cultured F-1 cells (CLEIA); format: cell-based, human; settings: AII (10 μM)+CV 10 μM; 24 hours; P<0.03 vs AII (10 μM)
# Method: The primary-cultured stromal cells (F-1 cells) derived from a patient with prostatic hypertrophy were prepared as described below.
# Tissues obtained from the patient were placed in a 50 mL centrifuge tube containing 20 mL of a medium (RPMI 1640, GIBCO 11835-030) supplemented with 10% (V/V) FBS (filtron) and mg/mL penicillin/streptomycin (GIBCO 15140-122), and allowed to stand at 4° C. for 1 hour or longer. Subsequently, the tissues were placed in a 10-cm dish, and cut into pieces of about 1 mm square. Blood vessels and the like were removed. At that time, to remove excessive blood (if necessary), the tissues were washed by adding 20 mL of the medium and centrifuging the mixture for 5 minutes at 1,000 rpm, followed by aspiration of the supernatant. […]
# PrSC cells prepared in the same manner as Example 1, or F-1 or FT-FB cells prepared as described above were placed in a 6-well dish at 10^5 cells per well, cultured at 5% CO2 and 37° C. for 1 day (24 hours), and stimulated by the addition of TGFβ (1 ng/mL), TNFα (1 ng/mL), EGF (2.5 or 10 ng/mL), or angiotensin II (1 μM or 10 μM) (n=3). […] The culture media were collected 24 hours after adding the reagents, and the concentrations of IL-6 were determined by the CLEIA method.
# PC-3 tumor grafts = assay: In vivo effect on PC-3 tumor grafts transplanted on mice; settings: PC-3 cells transplanted; CV 5 or 10 mg/kg/day orally in drinking water, first to fifth week; male nude mice
# Method: (§1) The in vivo effect of the AIIR blocker was examined using the PC-3 human prostatic cancer cells with less expression of AT1 receptors (obtained from American Type Culture Collection, Rockville, Md., USA), and PrSC cells. PC-3 cells (5×10^6 cells) or a mixture of PC-3 and PrSC cells (2.5×10^6 cells each; a total of 5×10^6 cells) were injected subcutaneously in the back of male nude mice of 4 weeks old for forming tumors. Tumors having a diameter of about 5 mm were formed after one week. The above-described mice were divided into three groups: CV (5 mg/kg/day) administered group, CV (10 mg/kg/day) administered group, and non-administered group (Control) (n=4 for each group). The administered groups were orally administered with a specified dose of CV dissolved in drinking water every day from the first to the fifth week after the tumorigenic injection. The size of the tumor (heterograft) on each mouse was measured every week, and the volume was calculated using the formula: major axis×minor axis×minor axis/2. The volume was expressed as relative ratio to the volume in the first week as being 1. The results are shown in FIGS. 8 (PC-3 cells were transplanted) and 9 (a mixture of PC-3 and PrSC cells was transplanted).
# [1] = tested on: mixed tumor grafts of PC-3 cells and PrSC cells; assay: In vivo effect on mixed tumor grafts of PC-3 cells and PrSC cells transplanted on mice
# Method: as §1
# [2] = tested on: MAPK phosphorylation in PrSC cells; assay: MAPK phosphorylation in PrSC cells (Western blotting); format: cell-based, human
# Method: Stromal cells (PrSC) were cultured for 24 hours in a phenol red-free F12 medium containing 0.1% (W/V) BSA, to which angiotensin II (10 μM) or TNFα (1 ng/mL) was added each alone or in combination with either CV (10 μM) or losartan (“Los”; 10 μM) by replacing the medium. The cells were collected 10 minutes after the addition, and the total cellular proteins were extracted in the same manner as described in Example 10. Similarly, the cells cultured with no additive and the cells added with either CV or Los alone were processed in parallel. 3,000,000 PrSC cells were used for each sample.
# These samples were subjected to Western blotting in the same manner as described in Example 10.
smiles,measurement,setting,value
"CCOc1nc2cccc(C(=O)OC(C)OC(=O)OC3CCCCC3)c2n1Cc1ccc(-c2ccccc2-c2nnn[nH]2)cc1 (stereo not shown) [CV, 1-(cyclohexyloxycarbonyloxy)ethyl 2-ethoxy-1-[[2′-(1H-tetrazole-5-yl)biphenyl-4-yl]methyl]-1H-benzimidazole-7-carboxylate]",IL-6 secretion,F-1 cells,significantly suppressed
same,proliferation (relative tumor volume) vs Control,PC-3 tumor grafts,"suppression of proliferation was observed for the CV administered groups as compared to “Control”, but the effect was not so remarkable"
same,proliferation (relative tumor volume) vs Control,"[1]; mixture of PC-3 and PrSC cells transplanted, CV 5 or 10 mg/kg/day orally in drinking water, first to fifth week, male nude mice",dose-dependently suppressed
same,"relative tumor volume, difference from Control","[1]; mixture of PC-3 and PrSC cells, CV 10 mg/kg/day, fourth and fifth weeks (P<0.04 and P<0.03)",significant differences
same,MAPK phosphorylation in PrSC cells,"[2]; AIIR blocker 10 μM added alone, lanes 8 and 9",not caused
same,MAPK phosphorylation in PrSC cells,"[2]; TNFα (1 ng/mL) in combination with AIIR blocker 10 μM, lanes 6 and 7, 10 minutes",suppressed
same,MAPK phosphorylation in PrSC cells,"[2]; angiotensin II (10 μM) in combination with AIIR blocker 10 μM, lanes 3 and 4, 10 minutes",suppressed
